# Measured values: patent US20040258772A1, “Methods of treating angiogenesis, tumor growth, and metastasis” (priority 2002, published 2004)
# “Also recorded” adds a separate entry of the source.
# Key:
# [1] = test system: Human adenocarcinoma cells (A549); assay type: cell-based; conditions: 250 ppm CO
# Source text: (§1) A human adenocarcinoma cell line designated A549, a murine mesothelioma cell line designated AC29, and a human colon cancer cell line designated HCT were utilized for the studies described herein.
# (§2) Cell cultures and mice were exposed to CO at a concentration of 250 ppm. Briefly, 1% CO in air was mixed with air (21% oxygen) in a stainless steel mixing cylinder and then directed into a 3.70 ft^3 glass exposure chamber at a flow rate of 12 L/min. A CO analyzer (Interscan, Chatsworth, Calif.) was used to measure CO levels continuously in the chamber. CO concentrations were maintained at 250 ppm at all times. Cell cultures and mice were placed in the exposure chamber as required.
# (§3) For [^3H] thymidine incorporation studies, cells were serum-starved overnight and then stimulated with 20% serum containing 5 mCi/ml [^3H] thymidine (New England Nuclear, Boston, Mass.). [^3H] thymidine incorporation was measured by scintillation spectroscopy. CO inhibits the growth of cancer cells in vitro Human and mouse cancer cell lines were used to investigate the effect of CO on growth rates of the cells in culture. Human adenocarcinoma cells (A549), mouse mesothelioma cells (AC29), and A549 and AC29 cells transformed with the heme oxygenase-1 (HO-1) gene (which causes the cells to overexpress HO-1) were exposed to low levels of CO (250 ppm) in culture. Four-day growth curves were generated.
# AC29 cells = experiment: Mesothelioma (AC29) survival model, cells injected intraperitoneally; assay type: in vivo, CBA mice
# Source text: (§4) For human tumor studies, female SCID mice (weighing 20 to 30 g) were purchased from Taconic (White Plains, N.Y.) and allowed to acclimate for 1 week prior to experimentation. For murine tumor and matrigel studies, male CBA and C57B1/6 mice (weighing 25 to 30 g) were purchased form Jackson Labs (Bar Harbor, Me.) and also were allowed to acclimate for 1 week prior to experimentation.
# as §2
# The first was a mesothelioma (AC29) model, wherein CBA mice were injected with 1×10^6 AC29 cells intraperitoneally and monitored for survival when continuously exposed to air or to an atmosphere containing 250 ppm CO for a period of six weeks. […] The survival rate of the CO-exposed mice was increased by greater than 90% as compared to air-exposed mice. The arrow shown in FIG. 3 denotes a time point at which half of the CO-exposed mice were removed from the CO chamber. Half of the mice were removed at that time to determine whether the effects of CO on mouse survival require continuous exposure to CO. A significant number of mice (50%, p<0.02) that were removed from the CO-containing atmosphere remained alive at the end of the experiment, whereas all air treated mice died by day 36. The number of mice in each group was 12 to 20 animals.
# In another experiment, it was shown that CO-exposed mice survived for greater than 65 days (data not shown).
# [2] = test system: mouse mesothelioma cells (AC29); experiment: Growth curves of cancer cells in culture exposed to CO; assay type: cell-based
# Source text: as §1, §2
# as §3, with “Four-day growth curves were generated.” left out
# A549 cells [3] = experiment: [3H] thymidine uptake, cGMP dependence of CO-induced growth arrest; assay type: cell-based, human; conditions: CO 250 ppm 3 hours before and 24 hours after serum; compared to CO alone
# Method: as §3
# The cellular mechanisms by which CO causes inhibition were also investigated. To investigate whether CO-induced growth arrest is CGMP dependant, A549 cells were exposed to air, CO, CO+ODQ, or CO+Rp-8-BR. […] The ability of the cells to proliferate was determined by measuring the uptake of [3H] thymidine by the cells (FIG. 5). Cells were exposed to CO (250 ppm) for 3 hours prior to the addition of serum and [3H] thymidine (5 mCi/ml). After the addition of serum and [3H] thymidine, cells were maintained in CO for 24 hours. Cells were then rinsed, fixed and examined by scintillation spectroscopy.
# [4] = test system: p21, p27, PCNA, Cdc25b, cyclin D1 in A549 cells; experiment: Immunoblot of growth/cell cycle proteins; assay type: cell-based, human
# Method: Immunoblotting was performed to investigate protein expression by standard methods known in the art. Antibodies were purchased from Santa Cruz, StressGen and Cell Signaling.
# To investigate CO-induced changes in the expression of various growth/cell cycle proteins in cancer cells, A549 cells were exposed for 24 hours to air or CO (250 ppm). After this period of exposure, cell lysates were collected from the cells and changes in protein expression in the lysates were examined by immunoblot.
# angiogenesis = experiment: Matrigel angiogenesis assay, FGF/heparin Matrigel implanted under the skin; assay type: in vivo, C57/B16 mice
# Source text: as §4, §2
# The effect of CO (250 ppm) on angiogenesis was investigated using a Matri gel […] angiogenesis assay. A solubilized basement membrane matrix (Matrigel™) containing 20 ng/ml growth factor (FGF) and heparin was implanted under the skin of C57/B16 mice. The mice were then exposed to air or CO in air for two weeks. After the two-week period, the Matrigel™ was removed and examined.
# In a separate experiment, Matrigel™ deposits containing 20 ng/ml growth factor (FGF) and heparin were implanted under the skin of C57/B16 mice, and the mice were exposed to air or CO (250 ppm) in air for 21 days. Photomicrographs of hematoxylin- and eosin-stained paraffin sections from the resected subcutaneous FGF-Matrigel deposits were prepared. Prominent angiogenesis was evident in deposits from air-exposed mice, as was a front of infiltrating vascular cells organizing into blood filled micro-capillaries (data not shown).
# HTC cells = experiment: [3H] thymidine uptake in wild-type and p21-deficient colon cancer cells; assay type: cell-based, human; conditions: p21-/- HTC cells versus wild type
# Method: as §3
# Wild-type (Wt) HTC cells and HTC cells deficient in p21 (p21−/−), a gene known to control cell growth, were exposed to air or CO to determine whether p21 is involved in CO-induced growth arrest (FIG. 6). As indicated by [^3H] thymidine uptake, CO-induced growth arrest appears less marked in HTC cells that are deficient in p21.
# A549 cells [5] = experiment: Adenocarcinoma (A549) subcutaneous tumor model; assay type: in vivo, SCID mice
# Source text: as §4, §2
# The second model was an adenocarcinoma (A549) model, wherein SCID mice were injected with 1×10^6 A549 cells subcutaneously. These animals were continuously exposed to air or to 250 ppm of CO for a period of six weeks. After the six-week period, the volume of the tumors that developed in the mice was evaluated.
# [6] = test system: VEGF production by A549 cells; experiment: VEGF production by ELISA; assay type: cell-based, human; conditions: CO plus air for 24 to 48 hours vs air alone
# Method: ELISA kits for VEGF levels were purchased from R&D Systems and used according to the manufacturer's directions.
# Whether CO inhibits production of VEGF, a growth factor that contributes to angiogenesis by promoting blood vessel growth, was investigated. A549 cells were exposed to air or CO plus air for 24 to 48 hours in vitro, and VEGF production by A549 cells was detected using an enzyme-linked immunosorbent assay (ELISA).
# [7] = test system: A549 cells transformed to overexpress HO-1; experiment: A549 HO-1 overexpressing tumor model; assay type: in vivo, mice; conditions: 50 μmol/kg s.c., data not shown
# Method: The third model was also an A549 model, wherein mice were injected with A549 cells transformed to overexpress HO-1 (HO-1 clones A5 and L1). After the six-week period, the size and volume of tumors that developed in the mice were evaluated. […] Using Western blot analysis, the relative decrease in volume was determined to correlate with a relative decrease in expression of cyclin D1, a protein involved in the regulation of cell growth (data not shown).
compound,measurement,setting,value
"[C-]#[O+] [CO, carbon monoxide]",toxicity as cause of reduced cell numbers,"[1]; A549 and AC29 cultures, confluency eventually achieved",not due to toxicity
same,reduction in cell number,"[1]; by three days, compared to controls",> 40%
same,increase of survival rate,"AC29 cells; 250 ppm CO, compared to air-exposed mice",greater than 90%
same,survival,AC29 cells; CO treatment delayed until one week after injection of mesothelioma cells,prolonged the lives; also recorded: prolongs survival
same,survival time,"AC29 cells; another experiment, data not shown",greater than 65 days
same,survival,AC29 cells; continuous 250 ppm CO for six weeks vs air,lived longer; also recorded: prolongs survival
same,mice removed from CO-containing atmosphere alive at end of experiment,"AC29 cells; half of CO-exposed mice removed from chamber, p<0.02, all air treated mice died by day 36",50%
same,reduction in cell number,"[2]; 250 ppm CO, by three days, compared to controls",> 40%
same,proliferation after removal from CO-containing atmosphere,[2]; cultures removed from CO at day 5,proliferate at a normal rate
same,proliferation of AC29 cells,"[2]; six-day growth curve, CO vs air",inhibits the proliferation
same,uptake of [3H] thymidine (proliferation),A549 cells [3],growth arrest
same,"expression of p21, p27, PCNA, Cdc25b and cyclin D1",[4]; 250 ppm CO for 24 hours,causes changes in expression
same,expression of p21,"[4]; CO for 4, 8 and 24 hours",causes changes in expression
same,cellularity and blood in Matrigel deposits,angiogenesis; 250 ppm CO in air for 21 days,paucity of cellularity and blood
same,angiogenesis in Matrigel deposits,"angiogenesis; 250 ppm CO in air for 21 days, H&E sections",No angiogenesis was evident
same,angiogenesis in Matrigel,"angiogenesis; 250 ppm CO in air for two weeks, data not shown",no new blood vessel growth
same,CO-induced growth arrest ([3H] thymidine uptake),HTC cells,less marked
same,tumor volume,A549 cells [5]; CO plus air vs air alone,reduced
same,reduction of tumor volume,"A549 cells [5]; continuous 250 ppm CO for six weeks, compared to air-exposed mice",greater than 50%
same,VEGF production,[6],substantially less VEGF; also recorded: inhibits
C=Cc1c2[n-]c(c1C)/C=c1\[n-]/c(c(C)c1C=C)=C\c1[n-]c(c(CCC(=O)O)c1C)/C=c1\[n-]c(c(C)c1CCC(=O)O)=C2.[Sn+4] [tin protoporphyrin],effect on the inhibition of tumor growth by HO-1 overexpression,[7],reversible
